This passage reports IC50 results from patent US7855297B2, “Amide derivatives and medicinal use thereof” (Mitsubishi Tanabe Pharma Corporation, priority 2000, dated 2010).

The target of the test is T1, C5a receptor (Homo sapiens, UniProt P21730).
T1 construct: U-937 cell was stimulated with 1 mM dibutyryl cyclic AMP (dcAMP, SIGMA) for 2 days to express the C5a receptor; endogenous in cells; host or cells: U-937 cells (human histiocytic lymphoma) differentiated with 1 mM dibutyryl cAMP for 2 days; whole cells, stored frozen and thawed before use
T1 sequence (P21730 1-350): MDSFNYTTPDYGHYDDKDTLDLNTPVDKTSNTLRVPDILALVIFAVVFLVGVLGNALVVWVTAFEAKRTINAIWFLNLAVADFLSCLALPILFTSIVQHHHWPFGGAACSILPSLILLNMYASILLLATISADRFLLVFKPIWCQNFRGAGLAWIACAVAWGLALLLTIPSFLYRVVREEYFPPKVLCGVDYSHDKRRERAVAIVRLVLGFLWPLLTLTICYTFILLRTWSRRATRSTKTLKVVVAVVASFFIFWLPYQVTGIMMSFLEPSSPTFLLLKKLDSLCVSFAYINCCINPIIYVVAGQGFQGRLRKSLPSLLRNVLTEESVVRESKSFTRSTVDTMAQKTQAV
Briefly: C5a receptor binding assay ([125I]-human C5a, dcAMP-U937 cells). The conditions noted are these: [125I]-C5a 200 pM, 4° C., 2 hr, read-out: IC50 value, concentration at which binding of [125I]-human C5a is inhibited by 50%. The protocol: The C5a receptor binding inhibitory action of C5a and the test compound was evaluated by a receptor binding assay comprising reacting human cell line U-937 (human histiocytic lymphoma line), which expresses the C5a receptor, with [^125I]-human C5a (Amersham Pharmacia Biotech) in a MultiScreen (MILLIPORE). First, U-937 cell was stimulated with 1 mM dibutyryl cyclic AMP (dcAMP, SIGMA) for 2 days to express the C5a receptor (dcAMP-U937 cell), and suspended in a binding buffer [50 mM HEPES, 1 mM CaCl2, 5 mM MgCl2, 0.5% bovine albumin (BSA, SIGMA), 0.02% NaN3 (pH 7.2)] and stored at −80° C. […] After drying the MultiScreen, the radioactivity on the filter was measured using a gamma counter.
The rate (% inhibition) of inhibition of C5a binding by the test compound was calculated by the following formula using the count value obtained without addition of the test compound as Total, the count value obtained with addition of non-labeled C5a as Non, and the count value obtained with addition of the test compound as Test. % Inhibition=100−[(Test-Non)/(Total-Non)]×100 […]

As to `CC(C)c1ccc(N(Cc2ccc(N(C)C)cc2)C(=O)C2CCCc3ccccc32)cc1` (stereo not shown) [Example 4, N-[(4-dimethylaminophenyl)methyl]-N-(4-isopropylphenyl)-1,2,3,4-tetrahydronaphthalene-1-carboxamide], the IC50 was determined as 104 nM.
